# Values of other authors, collected in PubChem BioAssay AID1259409 (Chemical Carcinogenesis Research Information System (CCRIS), 2018).
# System: rodent chemically induced tumor inhibition, incidence and multiplicity
# Assay: CCRIS tumor inhibitor studies
# Conditions: Promoter: NONE USED
compound,measurement,setting,value
CC(C(=O)O)c1ccc(-c2ccccc2)c(F)c1 (stereo not drawn),"tumour outcome (control, treated, inhibition, significance)","Carcinogen: N-METHYL-N-NITROSOUREA, 684-93-5, Dose [Inhibitor]: 31.25 MG/KG DIET DAILY STARTING 1 WK AFTER CARCINOGEN ADMINISTRATION AND CONTINUING THROUGH THE END OF THE STUDY (STUDY, Route [Inhibitor]: ORAL, Species: RAT, Strain/Sex: SPRAGUE-DAWLEY/FEMALE, Target Tissue: Type of Lesion: MAMMARY GLAND: CARCINOMA, Dose [Carcinogen]: 25 MG/KG BW ONCE","91%, 60%, 34%, p<0.05"
same,"tumour outcome (control, treated, inhibition, significance)","Carcinogen: N-METHYL-N-NITROSOUREA, 684-93-5, Dose [Inhibitor]: 31.25 MG/KG DIET DAILY STARTING 1 WK AFTER CARCINOGEN ADMINISTRATION AND CONTINUING THROUGH THE END OF THE STUDY (STUDY, Route [Inhibitor]: ORAL, Species: RAT, Strain/Sex: SPRAGUE-DAWLEY/FEMALE, Target Tissue: Type of Lesion: MAMMARY GLAND: CARCINOMA, Dose [Carcinogen]: 50 MG/KG BW ONCE","100%, 100%, 0%, not significant"
same,"tumour outcome (control, treated, inhibition, significance)","Carcinogen: N-METHYL-N-NITROSOUREA, 684-93-5, Dose [Inhibitor]: 31.25 MG/KG IN DIET STARTING 1 WK AFTER CARCINOGEN DOSE AND CONTINUING THROUGH THE END OF THE STUDY (STUDY DURATION: 180, Route [Inhibitor]: ORAL, Species: RAT, Strain/Sex: SPRAGUE-DAWLEY/FEMALE, Target Tissue: Type of Lesion: MAMMARY GLAND: CARCINOMA, Dose [Carcinogen]: 25 MG/KG BW ONCE","91%, 60%, 34%, p<0.05"
same,"tumour outcome (control, treated, inhibition, significance)","Carcinogen: N-METHYL-N-NITROSOUREA, 684-93-5, Dose [Inhibitor]: 31.25 MG/KG IN DIET STARTING 1 WK AFTER CARCINOGEN DOSE AND CONTINUING THROUGH THE END OF THE STUDY (STUDY DURATION: 180, Route [Inhibitor]: ORAL, Species: RAT, Strain/Sex: SPRAGUE-DAWLEY/FEMALE, Target Tissue: Type of Lesion: MAMMARY GLAND: CARCINOMA, Dose [Carcinogen]: 50 MG/KG BW ONCE","100%, 100%, 0%, not significant"
same,"tumour outcome (control, treated, inhibition, significance)","Carcinogen: N-METHYL-N-NITROSOUREA, 684-93-5, Dose [Inhibitor]: 62.5 MG/KG DIET DAILY STARTING 1 WK AFTER CARCINOGEN ADMINISTRATION AND CONTINUING THROUGH THE END OF THE STUDY (STUDY D, Route [Inhibitor]: ORAL, Species: RAT, Strain/Sex: SPRAGUE-DAWLEY/FEMALE, Target Tissue: Type of Lesion: MAMMARY GLAND: CARCINOMA, Dose [Carcinogen]: 25 MG/KG BW ONCE","91%, 68%, 25%, p<0.1"
same,"tumour outcome (control, treated, inhibition, significance)","Carcinogen: N-METHYL-N-NITROSOUREA, 684-93-5, Dose [Inhibitor]: 62.5 MG/KG DIET DAILY STARTING 1 WK AFTER CARCINOGEN ADMINISTRATION AND CONTINUING THROUGH THE END OF THE STUDY (STUDY D, Route [Inhibitor]: ORAL, Species: RAT, Strain/Sex: SPRAGUE-DAWLEY/FEMALE, Target Tissue: Type of Lesion: MAMMARY GLAND: CARCINOMA, Dose [Carcinogen]: 50 MG/KG BW ONCE","100%, 100%), 0%, not significant"
same,"tumour outcome (control, treated, inhibition, significance)","Carcinogen: N-METHYL-N-NITROSOUREA, 684-93-5, Dose [Inhibitor]: 62.5 MG/KG IN DIET STARTING 1 WK AFTER CARCINOGEN DOSE AND CONTINUING THROUGH THE END OF THE STUDY (STUDY DURATION: 180, Route [Inhibitor]: ORAL, Species: RAT, Strain/Sex: SPRAGUE-DAWLEY/FEMALE, Target Tissue: Type of Lesion: MAMMARY GLAND: CARCINOMA, Dose [Carcinogen]: 25 MG/KG BW ONCE","91%, 68%, 25%, p<0.1"
same,"tumour outcome (control, treated, inhibition, significance)","Carcinogen: N-METHYL-N-NITROSOUREA, 684-93-5, Dose [Inhibitor]: 62.5 MG/KG IN DIET STARTING 1 WK AFTER CARCINOGEN DOSE AND CONTINUING THROUGH THE END OF THE STUDY (STUDY DURATION: 180, Route [Inhibitor]: ORAL, Species: RAT, Strain/Sex: SPRAGUE-DAWLEY/FEMALE, Target Tissue: Type of Lesion: MAMMARY GLAND: CARCINOMA, Dose [Carcinogen]: 50 MG/KG BW ONCE","100%, 100%, 0%, not significant"
Oc1c(Cl)c(Cl)c(Cl)c(Cl)c1Cl,"tumour outcome (control, treated, inhibition, significance)","Carcinogen: N-HYDROXY-2-ACETYLAMINOFLUORENE, 53-95-2, Dose [Inhibitor]: 0, 0.04 UMOL/G BW IN 10 µL/G BW TRIOCTANOIN ONCE 45 MIN PRIOR TO CARCINOGEN DOSE (STUDY DURATION: 10 MO), Route [Inhibitor]: INTRAPERITONEAL, Species: MOUSE, Strain/Sex: B6C3F1/MALE, Target Tissue: Type of Lesion: LIVER: HEPATOMA, Dose [Carcinogen]: 0.06 UMOL/G BW IN 5 µL/G BW OF 80% DMSO","34/34 (100%), 19/33 (58%), 42%, not calculated"
same,"tumour outcome (control, treated, inhibition, significance)","Carcinogen: N-HYDROXY-2-ACETYLAMINOFLUORENE, 53-95-2, Dose [Inhibitor]: 0, 0.04 UMOL/G BW IN 10 µL/G BW TRIOCTANOIN ONCE 45 MIN PRIOR TO CARCINOGEN DOSE (STUDY DURATION: 10 MO), Route [Inhibitor]: INTRAPERITONEAL, Species: MOUSE, Strain/Sex: B6C3F1/MALE, Target Tissue: Type of Lesion: LIVER: HEPATOMA, Dose [Carcinogen]: 0.11 UMOL/G BW IN 5 µL/G BW OF 80% DMSO","33/33 (100%), 31/37 (84%), 16%, not calculated"
same,"tumour outcome (control, treated, inhibition, significance)","Carcinogen: N-HYDROXY-2-ACETYLAMINOFLUORENE, 53-95-2, Dose [Inhibitor]: 0, 0.04 UMOL/G BW IN 10 µL/G BW TRIOCTANOIN ONCE 45 MIN PRIOR TO CARCINOGEN DOSE (STUDY DURATION: 10 MO), Route [Inhibitor]: INTRAPERITONEAL, Species: MOUSE, Strain/Sex: B6C3F1/MALE, Target Tissue: Type of Lesion: LIVER: HEPATOMA, Dose [Carcinogen]: 0.22 UMOL/G BW IN 5 µL/G BW OF 80% DMSO","39/39 (100%), 31/41 (76%), 24%, not calculated"
C[C@H]1CC[C@@]2(C)C(=CC[C@@H]3[C@@H]2CC[C@]2(C)C(=O)CC[C@@H]32)C1,"tumour outcome (control, treated, inhibition, significance)","Carcinogen: 7,12-DIMETHYLBENZ[A]ANTHRACENE, 57-97-6, Dose [Inhibitor]: 100 UG IN 0.2 ML ACETONE 1 HR BEFORE EACH WEEKLY APPLICATION OF DMBA (STUDY DURATION: 290 D), Route [Inhibitor]: DERMAL, Species: MOUSE, Strain/Sex: CD-1/FEMALE, Target Tissue: Type of Lesion: SKIN: CARCINOMA, Dose [Carcinogen]: 200 NMOL AT 6-7 WK OF AGE THEN 100 NMOL IN 0.2 ML ACETONE 1 WK BEGINNING 2 WK LATER","14/28 (50%), 1/28 (4%), 92%, p<0.001"
same,outcome,"Carcinogen: 7,12-DIMETHYLBENZ[A]ANTHRACENE, 57-97-6, Dose [Inhibitor]: 400 UG IN 0.2 ML ACETONE 1 HR BEFORE EACH WEEKLY APPLICATION OF DMBA (STUDY DURATION: 290 D), Route [Inhibitor]: DERMAL, Species: MOUSE, Strain/Sex: CD-1/FEMALE, Target Tissue: Type of Lesion: SKIN: CARCINOMA, Dose [Carcinogen]: 200 NMOL AT 6-7 WK OF AGE THEN 100 NMOL IN 0.2 ML ACETONE 1/WK BEGINNING 2 WK LATER","14/28 (50%), 3/29 (10), 80%, p<0.001"
